Here are results for 5 compounds from patent EP0189101A2, “Compounds having mucolytic and bronchodilating activity, a process for their preparation and pharmaceutical composition containing them as active principle” (PROTER S.p.A., priority 1985, dated 1986).

One data set relates to suspension of 4% mucine. In words: in vitro mucolytic activity, viscosity of a 4% mucine suspension. The data set is classed as biochemical. As to conditions: 0,00625 M, after hydrolysis with rat serum. The text has this:
More specifically in the test of "in vitro" mucolytic activity with a suspension of 4% mucine (II Farmaco, ed.prat.33-379, 1978), and the molar concentration being the same (0,00625 M), after hydrolysis with rat serum, the 2-f(theophyllin-7-yl)-methyloxysuccinoylthiSïpropionamido acetic acid caused a reduction of viscosity by 11,2% to take place, which is like that of tiopronin (11,5%) and higher than that of N-acetylcysteine (7,6%).

Data set [1] has as its system fluid of the respiratory tract. The data set is described as follows: mucolytic-expectorant activity, fluorescein elimination in the fluid of the respiratory tract. The data set is classed as in vivo. As to conditions: 1 mM/kg/os; in comparison with the controls.
Data set [2] relates to shock induced by histamine. In words: antibronchospastic activity, shock induced by histamine. It is filed as in vivo. The settings on record: 0.25 mM/kg/i.p.; guinea pig; value after treatment.
For data set [3], the system named is spasm induced by acetylcholine. In words: Konzett-Rossler test, spasm induced by acetylcholine. The data set is classed as in vivo. The settings on record: spasm induced by acetylcholine (10 mcg/kg/e.v.); guinea pig. As to the method: (§1) (0.0276-0.1406), like that of theophylline of 0.0395 mM/kg/e.v. […] (0.0133-0,893) which is definitely and significatively lower than that of theophylline (0.1026 (0.0508-0.2072). The bronchodilating activity of the compounds of formula I is consequently definitely higher than that of theophylline.

Data set [4] has as its system spasm induced by histamine. The data set is described as follows: Konzett-Rossler test, spasm induced by histamine. It is filed as in vivo. As to conditions: spasm induced by histamine (2 mcg/kg/e.v.); guinea pig. The procedure: as §1
The nature of another data set: acute toxicity. As to conditions: in vivo, ip; female mouse.
Data set [5] concerns cough induced by citric acid. In words: anticough activity, cough induced by citric acid. As to conditions: guinea pig.

By LD50 is commonly meant the dose at which mortality reaches 50%. Regarding `CC(SC(=O)CCC(=O)OCn1cnc2c1c(=O)n(C)c(=O)n2C)C(=O)NCC(=O)O` (centres unmarked) [2-[(theophyllin-7-yl)methyloxysuccinoylthio]-propionamido acetic acid], the reduction of viscosity in the data set on suspension of 4% mucine was 11,2%. Besides, the “increase of the escretion of the colouring compound” value in data set [1] was 86%. In data set [2], this compound showed a shock resistance of 291.7 ± 43.2 s. Moreover, the ED50 in data set [3] came out at 0.0623 mM/kg/e.v. The same compound returned an ED in data set [4] of 0.0345 mM/kg/e.v. Further, the LD50 in the data set “acute toxicity” stood at 481 mg/kg. The “reduction of the cough” value in data set [5] (100 mg/kg/i.p., in comparison with the controls) stood at 79%.

On to `CC(=O)N[C@@H](CS)C(=O)O` [N-acetylcysteine], for which the reduction of viscosity in the data set with suspension of 4% mucine is listed as 7,6%.

As to `COc1ccc2c3c1O[C@H]1[C@@H](O)C=C[C@H]4[C@@H](C2)N(C)CC[C@@]341` [codeine phosphate], the “reduction of the cough” value in data set [5] (5 mg/kg/i.p.) is 87%.

For `Cn1c(=O)c2[nH]cnc2n(C)c1=O` [theophylline], the shock resistance in data set [2] was found to be 316.8 ± 27.3 s. In addition, the ED50 in data set [3] worked out at 0.0395 mM/kg/e.v. Further, in data set [4], the ED is on record as 0.1026 (0.0508-0.2072) mM/kg/e.v.

Regarding `CC(S)C(=O)NCC(=O)O` (centres unmarked) [tiopronin], in the data set with suspension of 4% mucine, the reduction of viscosity is recorded as 11,5%. Further, in data set [1], the “increase of the escretion of the colouring compound” value is 94%.
